{
  "source": "paper PMC4610166",
  "about": "“Structural and Functional Characterization of Recombinant Isoforms of the Lentil Lipid Transfer Protein” (Acta Naturae, 2015)",
  "experiment_in_all_cases": "TNS fluorescence displacement (ex […] nm, em […] nm)",
  "type_in_all_cases": "binding",
  "key": {"Lc-LTP2": {"target": "T1, Lc-LTP2 (Lens culinaris, UniProt A0AT29)", "T1 sequence (A0AT29 26-118)": "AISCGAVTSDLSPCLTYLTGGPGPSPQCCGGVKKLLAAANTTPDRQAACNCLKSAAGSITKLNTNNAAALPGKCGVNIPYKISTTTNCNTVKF", "conditions": "protein 2.5 uM; 3 uM TNS, 65 uM stearic acid; 175 mM D-mannitol, 0.5 mM K2SO4, 0.5 mM CaCl2, 5 mM MES pH 7.0, 25 C; competition with TNS"}, "Lc-LTP1": {"target": "T2, Lc-LTP1 (Lens culinaris, UniProt A0AT28)", "T2 construct": "mature protein, 93 residues; expressed in E. coli BL21(DE3) as His8-TrxL fusion, tag cut off with CNBr; four disulfides; monomer and dimer on SDS-PAGE", "T2 sequence (A0AT28 26-118)": "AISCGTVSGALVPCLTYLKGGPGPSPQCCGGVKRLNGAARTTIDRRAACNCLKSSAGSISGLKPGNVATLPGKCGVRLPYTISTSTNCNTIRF", "conditions": "refolded protein 2.5 uM; 3 uM TNS, 65 uM stearic acid; 175 mM D-mannitol, 0.5 mM K2SO4, 0.5 mM CaCl2, 5 mM MES pH 7.0, 25 C; competition with TNS"}, "Lc-LTP3": {"target": "T3, Lc-LTP3 (Lens culinaris, UniProt A0AT30)", "T3 construct": "mature protein, 93 residues; expressed in E. coli BL21(DE3) as His8-TrxL fusion, tag cut off with CNBr; from soluble fraction; four disulfides; monomer and dimer on SDS-PAGE", "T3 sequence (A0AT30 26-118)": "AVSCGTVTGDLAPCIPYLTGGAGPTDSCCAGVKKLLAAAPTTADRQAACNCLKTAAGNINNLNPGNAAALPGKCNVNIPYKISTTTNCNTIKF", "conditions": "protein 2.5 uM; 3 uM TNS, 65 uM stearic acid; 175 mM D-mannitol, 0.5 mM K2SO4, 0.5 mM CaCl2, 5 mM MES pH 7.0, 25 C; competition with TNS"}},
  "data": [
    {"smiles": "CCCCCCCCCCCCCCCCCC(=O)O", "note": "[stearic acid]", "values": [
      {"measurement": "% fluorescence intensity of the protein-TNS complex", "setting": "Lc-LTP2", "result": "all three isoforms possess the ability to bind fatty acids"},
      {"measurement": "% fluorescence intensity of the protein-TNS complex", "setting": "Lc-LTP1", "result": "all three isoforms possess the ability to bind fatty acids"},
      {"measurement": "% fluorescence intensity of the protein-TNS complex", "setting": "Lc-LTP3", "result": "all three isoforms possess the ability to bind fatty acids"}
    ]}
  ]
}
